The test system of data set [1] is cytokine, GATA3 and Tbx21 mRNA. Kind of data set: Quantitative RT-PCR, total CD4+ T cells under IL-2 conditions. It is filed as cell-based, mouse. As to conditions: 30 µM, five days. How it is done: C57BL/6 mice were purchased from Clea (Clea Japan, Inc., Tokyo, Japan). Total CD4^+ T cells isolated from mouse spleen were prepared using a FITC anti-mouse CD4 antibody (Cat#100510, RM4–5, BioLegend) and anti-FITC-microbeads (Cat#130-097-050, Miltenyi Biotec). Naive CD4^+ T cells (CD44^low, CD62L^high) were prepared using a MojoSort Mouse CD4 T cell Isolation Kit (Cat#480033), BioLegend). Biotinylated anti-CD44 (Cat#103004, IM7) and anti-CD25 antibodies (Cat#102004, PC61) were purchased from BioLegend. CD4^+ T cells (7.5 × 10^5) were stimulated using immobilized anti-TCR-β mAb (3 µg/mL, H57–597, BioLegend) plus an anti-CD28 mAb (1.0 µg/mL, cat#40–0281, TONBO Biosciences) for 2 days, and then, the cells were further expanded under similar conditions for an additional 3 days. IL-2 conditions: IL-2 (10 ng/mL, Pepro Tech); Th2 conditions: IL-2 (10 ng/mL, Pepro Tech), IL-4 (1 ng/mL, Pepro Tech), and anti-IFN-γ mAb (2.5 µg/mL, cat#40–731, TONBO Biosciences). Th1 conditions: IL-2 (10 ng/mL, Pepro Tech), IL-12 (1 ng/mL, Pepro Tech), and anti-IL-4 mAb (2.5 µg/mL, cat#40–731, TONBO Biosciences). The cultured cells were subjected to intracellular staining, ELISA assay, and RT-PCR. All animal experiments received approval from the Ehime University Administrative Panel for Animal Care. All animal care was conducted in accordance with the guidelines of Ehime University.
Total RNA was isolated using the TRI Reagent (Molecular Research Center, Inc.). Reverse transcription and qRT-PCR were performed using the Transcriptor First Strand cDNA Synthesis Kit (Cat#04379012001, Roche) and FastStart Essential DNA Green Master (Cat#06402712001, Roche), according to the manufacturer’s protocols. qRT-PCR primers were used as follow; IL-4: 5′-GATCGGCATTTTCAACGAG-3′ (forward), 5′-[…]-3′ (reverse); IL-13: 5′-[…]-3′ (forward), 5′-[…]-3′ (reverse); IFN-γ: 5′-[…]-3′ (forward), 5′-[…]-3′ (reverse); IL-2: 5′-[…]-3′ (forward), 5′-[…]-3′ (reverse); Gata3: 5′-TTATCAAGCCCAAGCGAAG-3′ (forward), 5′-TGGTGGTGGTCTGACAGTT-3′ (reverse); and Tbx21: 5′-[…]-3′ (forward), 5′-[…]-3′ (reverse).
(C) Quantitative RT-PCR analysis of the pyrrothiogatain-treated Th2 cells shown in panel (A).

Data set [2] concerns GATA3 binding to Th2 cytokine gene locus. Kind of data set: Chromatin immunoprecipitation with anti-GATA3 antibody in Th2 cells. It is filed as cell-based, mouse. The following applies: naive CD4+ T cells, Th2 conditions, 80 µM, 2 days. Here is the method:
GATA3 has been reported to bind to Th2 cytokine gene locus, such as IL-4 VA enhancer, IL-4 intron enhancer, conserved Gata3-response element (CGRE)[26] and IL-5 promoter[27] regions in Th2 cells. We investigated whether pyrrothiogatain inhibited GATA3 binding to Th2 cytokine gene locus. Naive CD4^+ T cells were cultured under Th2 conditions in the presence or absence of 80 µM pyrrothiogatain for 2 days, and then the cells were subjected to chromatin immunoprecipitation with an anti-GATA3 antibody.
The Magna ChIP Chromatin Immunoprecipitation Kit was used for the ChIP assay according to the manufacturer’s protocol (Merck-Millipore). Anti-GATA3 antibody (Cat#AF2605, R&D systems) was used for chromatin immunoprecipitation. The specific primers for the Th2 cytokine gene locus and the Roche Universal probes were used as follows: the VA site in the IL-4 enhancer: 5′-[…]-3′ (forward), 5′-[…]-3′ (reverse), probe #4; IL-4 IE: 5′-[…]-3′ (forward), 5′-AAATCCGAAACTGA GGAGTGC-3′ (reverse), probe #75; CGRE: 5′-CTCTCCTGGTGGCGTGTT-3′ (forward), 5′-CTTTGCGCACCCTTGAAC-3′ (reverse), probe #53; and IL-5p: 5′-[…]-3′ (forward), 5′-[…]-3′ (reverse), probe #43;

A further data set deals with Th1 cell differentiation. Kind of data set: Th1 cell differentiation, naive CD4+ T cells under Th1 conditions. It is filed as cell-based, mouse. As to conditions: 80 µM, five days. How it is done: C57BL/6 mice were purchased from Clea (Clea Japan, Inc., Tokyo, Japan). Total CD4^+ T cells isolated from mouse spleen were prepared using a FITC anti-mouse CD4 antibody (Cat#100510, RM4–5, BioLegend) and anti-FITC-microbeads (Cat#130-097-050, Miltenyi Biotec). Naive CD4^+ T cells (CD44^low, CD62L^high) were prepared using a MojoSort Mouse CD4 T cell Isolation Kit (Cat#480033), BioLegend). Biotinylated anti-CD44 (Cat#103004, IM7) and anti-CD25 antibodies (Cat#102004, PC61) were purchased from BioLegend. CD4^+ T cells (7.5 × 10^5) were stimulated using immobilized anti-TCR-β mAb (3 µg/mL, H57–597, BioLegend) plus an anti-CD28 mAb (1.0 µg/mL, cat#40–0281, TONBO Biosciences) for 2 days, and then, the cells were further expanded under similar conditions for an additional 3 days. […]
The in vitro differentiated CD4^+ T cells were stimulated using an immobilized anti-TCR-β mAb (3 µg/ml, H57–597, BioLegend) for 6 h in the presence of monensin (2 µM). […] Flow cytometry was performed using a Gallios Flow Cytometer instrument (Beckman Coulter) and a FACS Caliber instrument (BD Biosciences) and the results were analysed using the FlowJo software program (Tree Star, Ashland, OR, USA). […]
(B) Cytokine production induced in the pyrrothiogatain-treated Th1 cells shown in panel (A) was determined by ELISA.

In a further data set the test system is Jurkat cells. Kind of data set: MTS assay (cytotoxicity). It is filed as cell-based. As to conditions: 0 to 100 µM, 3 days. How it is done:
Jurkat cells were cultured at 37 °C with 5% CO2 in RPMI 1640 Medium (cat#72400047; Thermo Fisher) in the presence or absence of pyrrothiogatain (0 to 100 µM). Cell viability was measured using a CellTiter 96® AQueous One Solution Cell Proliferation Assay (cat#G3582; Promega) according to the manufacturer’s protocol.
In general terms: Formazan colour is commonly taken as a measure of viable cells.

We go through one compound from PMC6874683, “Pyrrothiogatain acts as an inhibitor of GATA family proteins and inhibits Th2 cell differentiation in vitro” (Scientific Reports, 2019).

Structures are written as SMILES.

For the compound `Cc1ccc(C)n1-c1ccsc1C(=O)O` [Pyrrothiogatain, 3-(2,5-dimethyl-1H-pyrrol-1-yl)thiophene-2-carboxylic acid], in data set [1], the “Expression of GATA3, mRNA level” value is reported as “not influenced”; the “Expression of Tbx21” value is “increased”; the “mRNA expression of IFN-γ (RT-qPCR)” value is given as “Increased”; the “mRNA expression of IL-4, IL-5, IL-10, and IL-13 (RT-qPCR)” value is listed as “decreased”. The “GATA3 binding to the IL-4 VA enhancer, IL-4 intron enhancer, CGRE and IL-5 promoter regions” value in data set [2] was “repressed”. The “Generation of IFN-γ and IL-2 producing Th1 cells” value in the data set with Th1 cell differentiation is given as “modestly increased”. In addition, the Cell viability result in the data set with Jurkat cells is listed as “did not influence cell viability”.
